Laboratory results taken from patent US20250032651A1, “[177LU] LUTETIUM-PSMA I&T COMPOSITION AND DOSIMETRY, KIT, METHOD OF MAKING, AND METHOD OF USING THEREOF” (Curium US LLC, priority 2022, published 2025).
Several values for one entry are separate records, joined by “and”; a condition that tells them apart may be missing. Equal values may be shown once.

Assay: Plasma PK: gamma-counted plasma radioactivity, bi-exponential fit
Assay type: in vivo, human
Experimental: Additionally, for PK assessment, whole blood samples were collected at six timepoints (Pre-Infusion, 1 h, 4 h, 24 h, 48 h, and 168 h) and processed to extract plasma. All plasma samples were gamma counted locally for analysis of pharmacokinetics.
PK plasma samples were collected at pre-Infusion, 1 h, 4 h, 24 h, 48 h, and 168 h, and counted for radioactivity. Blood samples were first centrifuged to extract plasma, and then the radioactivity in plasma was counted in a gamma counter.
Whole blood samples were collected as detailed in the protocol Schedule of Events i.e. pre-injection, and then at 1 h, 4 h, 24 h, 48 h, and 168 h post-injection. The samples were first centrifuged to separate plasma, and the radioactivity in the plasma was then measured using a gamma counter. Plasma concentrations were subsequently fitted with a bi-exponential function to derive outcome parameters such as the half-life and clearance rate of the radiopharmaceutical in the plasma.

[1] = Cycle 1, plasma radioactivity, bi-exponential fit
[2] = plasma, Cycle 1, excluding patient 42-030
[3] = plasma, Cycle 1, individual patient values
[4] = plasma, Cycle 1, individual patients

O=C([O-])CC[C@H](NC(=O)N[C@@H](CCCCNC(=O)CCCCCCC(=O)NCCCC[C@@H](NC(=O)[C@@H](Cc1ccccc1)NC(=O)[C@@H](Cc1ccc(O)c(I)c1)NC(=O)CC[C@H](C(=O)[O-])N1CCN(CC(=O)[O-])CCN(CC(=O)[O-])CCN(CC(=O)[O-])CC1)C(=O)[O-])C(=O)[O-])C(=O)[O-].[177Lu+3].[H+].[H+].[H+].[H+].[H+] [^177Lu-PSMA I&T, (3S,7S,26R,29R,32R,37R)-29-benzyl-32-(4-hydroxy-3-iodobenzyl)-5,13,20,28,31,34-hexaoxo-37-(4,7,10-tris(carboxymethyl)-1,4,7,10-tetraazacyclododecan-1-yl)-4,6,12,21,27,30,33-heptaazaheptatriacontane-1,3,7,26,37-pentacarboxylic acid; lutetium-177 (III)]
plasma clearance (Cycle 1): 13.06 ± 16.50 L/h
plasma half-life, outlier value (Cycle 1, patient 42-030 (superscan)): 113.96 h
time to peak plasma concentration (Cycle 1, patient 80-007, first post-administration sample delayed): 127 min
plasma mean distribution half-life [1]: 1.89 ± 0.34 h
plasma mean elimination half-life [1]: 14.7 ± 10.1 h and 14.70 ± 10.10 h
distribution volume (Cycle 1 plasma PK): moderate-to-high
AUC Total (plasma, Cycle 1, Mean): 22.77 fIA/L × min
Clearance Rate (plasma, Cycle 1, Mean): 13.06 L/h
Peak Concentration Value (plasma, Cycle 1, Mean): 0.04 fIA/L
Time of Peak Concentration (plasma, Cycle 1, Mean): 59.19 min
Vc (plasma, Cycle 1, Mean): 20.29 L
Vd (plasma, Cycle 1, Mean): 234.64 L
AUC Total, Mean [2]: 22.77 fIA/L x min
AUC Total, max [2]: 37.86 fIA/L x min
AUC Total, median [2]: 20.84 fIA/L x min
AUC Total, min [2]: 3.07 fIA/L x min
Clearance Rate, Mean [2]: 13.06 L/h
Clearance Rate, max [2]: 89.38 L/h
Clearance Rate, median [2]: 9.79 L/h
Clearance Rate, min [2]: 2.89 L/h
Distribution Half-Life, Mean [2]: 1.89 h
Distribution Half-Life, max [2]: 2.42 h
Distribution Half-Life, median [2]: 1.93 h
Distribution Half-Life, min [2]: 1.14 h
Elimination Half-Life, Mean [2]: 14.70 h
Elimination Half-Life, max [2]: 53.30 h
Elimination Half-Life, median [2]: 10.52 h
Elimination Half-Life, min [2]: 8.16 h
Peak Concentration Value, Mean [2]: 0.04 fIA/L
Peak Concentration Value, max [2]: 0.07 fIA/L
Peak Concentration Value, median [2]: 0.04 fIA/L
Peak Concentration Value, min [2]: 0.01 fIA/L
Time of Peak Concentration [2]: 33.00 min
Time of Peak Concentration, Mean [2]: 59.19 min
Time of Peak Concentration, max [2]: 127.00 min
Time of Peak Concentration, median [2]: 59.00 min
Vc, Mean [2]: 20.29 L
Vc, max [2]: 111.78 L
Vc, median [2]: 16.33 L
Vc, min [2]: 9.92 L
distribution volume (column headed "Patient"), Mean [2]: 234.64
distribution volume (column headed "Patient"), max [2]: 1365.03
distribution volume (column headed "Patient"), median [2]: 157.12
distribution volume (column headed "Patient"), min [2]: 54.60
AUC Total [3]: 30.05 fIA/L x min and 27.64 fIA/L x min and 20.58 fIA/L x min and 19.49 fIA/L x min and 3.07 fIA/L x min and 25.59 fIA/L x min and 25.58 fIA/L x min and 21.49 fIA/L x min and 26.70 fIA/L x min and 31.83 fIA/L x min and 15.14 fIA/L x min and 28.67 fIA/L x min and 17.09 fIA/L x min and 19.85 fIA/L x min and 34.96 fIA/L x min and 24.13 fIA/L x min and 13.46 fIA/L x min and 17.93 fIA/L x min and 18.79 fIA/L x min and 15.54 fIA/L x min and 19.50 fIA/L x min and 37.86 fIA/L x min and 21.09 fIA/L x min and 34.60 fIA/L x min and 33.81 fIA/L x min and 19.09 fIA/L x min and 15.16 fIA/L x min
Clearance Rate [3]: 3.89 L/h and 4.21 L/h and 9.97 L/h and 17.94 L/h and 89.38 L/h and 6.26 L/h and 9.62 L/h and 7.63 L/h and 2.82 L/h and 4.73 L/h and 21.26 L/h and 2.89 L/h and 20.65 L/h and 8.08 L/h and 5.73 L/h and 7.92 L/h and 17.68 L/h and 10.55 L/h and 14.19 L/h and 17.10 L/h and 10.68 L/h and 3.95 L/h and 13.78 L/h and 3.66 L/h and 4.78 L/h and 12.34 L/h and 10.74 L/h
Distribution Half-Life [3]: 1.14 h and 2.14 h and 1.88 h and 1.93 h and 1.69 h and 2.13 h and 2.19 h and 2.31 h and 1.81 h and 1.66 h and 1.78 h and 1.35 h and 1.77 h and 2.12 h and 1.92 h and 2.39 h and 1.30 h and 2.03 h and 2.42 h and 1.46 h and 2.05 h and 2.04 h and 2.22 h and 2.21 h and 1.67 h
Elimination Half-Life [3]: 9.61 h and 24.34 h and 15.32 h and 9.32 h and 10.58 h and 10.59 h and 12.43 h and 10.02 h and 10.46 h and 113.96 h and 9.19 h and 12.50 h and 53.30 h and 10.35 h and 9.28 h and 8.16 h and 8.92 h and 35.48 h and 8.68 h and 11.79 h and 19.98 h and 11.28 h and 9.41 h and 23.96 h and 16.65 h
Vc [3]: 21.87 L and 15.83 L and 16.82 L and 13.76 L and 111.78 L and 17.80 L and 11.45 L and 20.41 L and 38.22 L and 10.76 L and 18.90 L and 22.65 L and 15.26 L and 21.10 L and 9.92 L and 17.87 L and 22.51 L and 14.72 L and 16.91 L and 25.15 L and 17.72 L and 12.87 L and 15.24 L and 14.74 L and 11.55 L and 15.53 L and 14.35 L
distribution volume (column headed "Patient") [3]: 136.62 and 93.01 and 134.00 and 273.75 and 1365.03 and 112.27 and 139.07 and 115.14 and 463.99 and 62.71 and 383.51 and 222.08 and 308.54 and 108.16 and 67.50 and 118.24 and 227.51 and 540.13 and 177.78 and 291.02 and 307.91 and 64.25 and 187.12 and 54.60 and 165.33 and 296.49 and 148.91
Time of Peak Concentration (plasma, Cycle 1, individual patient values, time of first post-administration sample): 53.00 min and 60.00 min (6×) and 51.00 min (2×) and 58.00 min and 61.00 min (2×) and 50.00 min and 63.00 min and 57.00 min and 55.00 min and 52.00 min (2×) and 68.00 min and 71.00 min and 65.00 min and 33.00 min and 40.00 min and 69.00 min and 56.00 min and 127.00 min and 47.00 min
Peak Concentration Value (plasma, Cycle 1, individual patient values, value of first post-administration sample): 0.04 fIA/L (10×) and 0.03 fIA/L (4×) and 0.05 fIA/L (7×) and 0.01 fIA/L and 0.06 fIA/L (2×) and 0.02 fIA/L and 0.07 fIA/L (2×)
AUC Total [4]: 19.09 fIA/L × min and 15.16 fIA/L × min and 30.05 fIA/L × min and 27.64 fIA/L × min and 20.58 fIA/L × min and 19.49 fIA/L × min and 3.07 fIA/L × min and 25.59 fIA/L × min and 25.58 fIA/L × min and 21.49 fIA/L × min and 26.70 fIA/L × min and 31.83 fIA/L × min and 15.14 fIA/L × min and 28.67 fIA/L × min and 17.09 fIA/L × min and 19.85 fIA/L × min and 34.96 fIA/L × min and 24.13 fIA/L × min and 13.46 fIA/L × min and 17.93 fIA/L × min and 18.79 fIA/L × min and 15.54 fIA/L × min and 19.50 fIA/L × min and 37.86 fIA/L × min and 21.09 fIA/L × min and 34.60 fIA/L × min and 33.81 fIA/L × min
Clearance Rate [4]: 12.34 L/h and 10.74 L/h and 3.89 L/h and 4.21 L/h and 9.97 L/h and 17.94 L/h and 89.38 L/h and 6.26 L/h and 9.62 L/h and 7.63 L/h and 2.82 L/h and 4.73 L/h and 21.26 L/h and 2.89 L/h and 20.65 L/h and 8.08 L/h and 5.73 L/h and 7.92 L/h and 17.68 L/h and 10.55 L/h and 14.19 L/h and 17.10 L/h and 10.68 L/h and 3.95 L/h and 13.78 L/h and 3.66 L/h and 4.78 L/h
Peak Concentration Value [4]: 0.05 fIA/L (7×) and 0.04 fIA/L (10×) and 0.03 fIA/L (4×) and 0.01 fIA/L and 0.06 fIA/L (2×) and 0.02 fIA/L and 0.07 fIA/L (2×)
Time of Peak Concentration [4]: 47.00 min and 53.00 min and 60.00 min (6×) and 51.00 min (2×) and 58.00 min and 61.00 min (2×) and 50.00 min and 63.00 min and 57.00 min and 55.00 min and 52.00 min (2×) and 68.00 min and 71.00 min and 65.00 min and 33.00 min and 40.00 min and 69.00 min
Vc [4]: 15.53 L and 14.35 L and 21.87 L and 15.83 L and 16.82 L and 13.76 L and 111.78 L and 17.80 L and 11.45 L and 20.41 L and 38.22 L and 10.76 L and 18.90 L and 22.65 L and 15.26 L and 21.10 L and 9.92 L and 17.87 L and 22.51 L and 14.72 L and 16.91 L and 25.15 L and 17.72 L and 12.87 L and 15.24 L and 14.74 L and 11.55 L
Vd [4]: 296.49 L and 148.91 L and 136.62 L and 93.01 L and 134.00 L and 273.75 L and 1365.03 L and 112.27 L and 139.07 L and 115.14 L and 463.99 L and 62.71 L and 383.51 L and 222.08 L and 308.54 L and 108.16 L and 67.50 L and 118.24 L and 227.51 L and 540.13 L and 177.78 L and 291.02 L and 307.91 L and 64.25 L and 187.12 L and 54.60 L and 165.33 L
AUC Total (plasma, Cycle 1, max): 37.86 fIA/L × min
Clearance Rate (plasma, Cycle 1, max): 89.38 L/h
Peak Concentration Value (plasma, Cycle 1, max): 0.07 fIA/L
Time of Peak Concentration (plasma, Cycle 1, max): 127.00 min
Vc (plasma, Cycle 1, max): 111.78 L
Vd (plasma, Cycle 1, max): 1365.03 L
AUC Total (plasma, Cycle 1, median): 20.84 fIA/L × min
Clearance Rate (plasma, Cycle 1, median): 9.79 L/h
Peak Concentration Value (plasma, Cycle 1, median): 0.04 fIA/L
Vc (plasma, Cycle 1, median): 16.33 L
Vd (plasma, Cycle 1, median): 157.12 L
